Kd data for 17 compounds are collected here from patent US20250074891A1 (Anaxis Pharma Pty Ltd., priority 2021, published 2025).

Conditions in all cases: Table 35
One test addresses MLKL (full length) (Homo sapiens (Human), UniProt Q8NB16). The test can be described thus: KINOMEscan binding assay, MLKL (full length). Here is the method: (§1) Kinase assays. For most assays, kinase-tagged T7 phage strains were grown in parallel in 24-well blocks in an E. coli host derived from the BL21 strain. E. coli were grown to log-phase and infected with T7 phage from a frozen stock (multiplicity of infection=0.4) and incubated with shaking at 32° C. until lysis (90-150 minutes).
(§2) The Hill Slope was set to −1.

Another test has as its target RIP1 (Homo sapiens (Human), UniProt Q13546). Nature of the test: KINOMEscan binding assay, RIP1.
The target of the next test is RIP3 (Homo sapiens (Human), UniProt Q9Y572). Nature of the test: KINOMEscan binding assay, RIP3. Here is the method:
as §1, §2

Sequence of RIP3 (Q9Y572 whole entry): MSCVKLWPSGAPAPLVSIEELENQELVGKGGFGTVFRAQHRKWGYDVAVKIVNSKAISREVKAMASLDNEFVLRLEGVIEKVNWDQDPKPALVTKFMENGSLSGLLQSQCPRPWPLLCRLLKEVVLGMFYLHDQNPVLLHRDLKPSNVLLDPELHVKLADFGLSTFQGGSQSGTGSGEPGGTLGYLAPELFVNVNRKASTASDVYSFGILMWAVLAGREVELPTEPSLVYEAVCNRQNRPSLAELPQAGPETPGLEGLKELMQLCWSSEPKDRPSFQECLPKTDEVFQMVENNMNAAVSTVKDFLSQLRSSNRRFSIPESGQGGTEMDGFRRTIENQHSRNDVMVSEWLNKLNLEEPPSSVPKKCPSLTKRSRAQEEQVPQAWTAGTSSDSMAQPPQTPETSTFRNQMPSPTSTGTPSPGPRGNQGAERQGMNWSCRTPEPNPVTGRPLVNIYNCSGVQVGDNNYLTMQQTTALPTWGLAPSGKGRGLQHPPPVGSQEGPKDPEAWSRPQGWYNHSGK
Sequence of MLKL (full length) (Q8NB16 whole entry): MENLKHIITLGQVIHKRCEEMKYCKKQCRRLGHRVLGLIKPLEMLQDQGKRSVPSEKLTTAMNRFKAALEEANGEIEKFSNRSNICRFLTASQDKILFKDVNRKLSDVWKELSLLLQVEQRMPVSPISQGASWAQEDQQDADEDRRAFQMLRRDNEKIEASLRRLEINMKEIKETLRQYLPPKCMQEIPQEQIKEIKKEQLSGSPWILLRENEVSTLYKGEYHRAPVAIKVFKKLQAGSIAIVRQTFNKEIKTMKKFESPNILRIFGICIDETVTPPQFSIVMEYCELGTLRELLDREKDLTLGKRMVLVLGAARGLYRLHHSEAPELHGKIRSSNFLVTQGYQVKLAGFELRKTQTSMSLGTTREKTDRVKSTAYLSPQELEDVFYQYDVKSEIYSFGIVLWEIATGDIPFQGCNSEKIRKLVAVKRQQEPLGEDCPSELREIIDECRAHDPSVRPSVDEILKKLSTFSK
Sequence of RIP1 (Q13546 whole entry): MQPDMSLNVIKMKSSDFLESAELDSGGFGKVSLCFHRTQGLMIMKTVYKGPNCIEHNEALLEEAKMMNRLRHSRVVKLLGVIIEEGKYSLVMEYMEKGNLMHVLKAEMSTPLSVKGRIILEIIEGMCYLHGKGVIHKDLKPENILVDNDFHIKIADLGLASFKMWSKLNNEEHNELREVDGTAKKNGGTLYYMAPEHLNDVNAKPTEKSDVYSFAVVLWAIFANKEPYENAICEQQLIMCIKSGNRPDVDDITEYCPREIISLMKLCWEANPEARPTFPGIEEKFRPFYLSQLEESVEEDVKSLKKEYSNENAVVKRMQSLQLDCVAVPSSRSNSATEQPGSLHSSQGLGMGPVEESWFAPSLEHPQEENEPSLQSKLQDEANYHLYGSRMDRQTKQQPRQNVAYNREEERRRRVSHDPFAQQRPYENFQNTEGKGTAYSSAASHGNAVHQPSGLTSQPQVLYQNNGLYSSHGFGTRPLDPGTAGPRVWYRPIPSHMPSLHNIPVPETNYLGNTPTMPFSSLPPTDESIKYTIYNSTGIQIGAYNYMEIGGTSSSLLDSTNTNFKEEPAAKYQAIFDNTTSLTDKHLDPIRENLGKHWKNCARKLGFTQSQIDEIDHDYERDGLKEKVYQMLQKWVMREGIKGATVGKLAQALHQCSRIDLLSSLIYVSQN

Broadly, the Kd is a measure of binding affinity in units of concentration. Lower therefore signals tighter binding. As for `COCCOc1cc(Nc2[nH]nc(-c3ccc(NS(=O)(=O)N(C)C)cc3)c2C(N)=O)ccn1` [Compound 221, 3-(4-((N,N-dimethylsulfamoyl)amino)phenyl)-5-((2-(2-methoxyethoxy)pyridin-4-yl)amino)-1H-pyrazole-4-carboxamide], the Kd at MLKL (full length) is under 0.01 µM; at RIP1, over 30 µM; at RIP3, over 30 µM.
On to `C[C@H](Oc1cc(-c2n[nH]c(Nc3cnccn3)c2C(N)=O)ccc1NS(=O)(=O)C(F)F)c1ccc(F)cc1` [Compound 223, 3-[4-(difluoromethanesulfonamido)-3-[(1S)-1-(4-fluorophenyl)ethoxy]phenyl]-5-[(pyrazin-2-yl)amino]-1H-pyrazole-4-carboxamide], for which the results for the Kd on MLKL (full length), on RIP1 and on RIP3 were under 0.01 µM, over 30 µM and over 30 µM, respectively.
For `NC(=O)c1c(-c2ccc(NS(=O)(=O)CC(F)(F)F)c(OCc3ccc(F)c(Cl)c3)c2)n[nH]c1Nc1cnccn1` [Compound 225, 3-{3-[(3-chloro-4-fluorophenyl)methoxy]-4-(2,2,2-trifluoroethane-sulfonamido)phenyl}-5-[(pyrazin-2-yl)amino]-1H-pyrazole-4-carboxamide], the Kd at MLKL (full length) was under 0.01 µM; on RIP1, over 30 µM; at RIP3, over 30 µM.
As for `NC(=O)c1c(-c2ccc(NS(=O)(=O)C(F)F)c(OCc3ccc(F)c(F)c3)c2)n[nH]c1Nc1ccccn1` [Compound 226], the Kd at MLKL (full length) was under 0.01 µM; at RIP1 it was over 30 µM; on RIP3, over 30 µM.
In the case of `NC(=O)c1c(-c2ccc(NS(=O)(=O)CC(F)(F)F)c(OCc3ccccn3)c2)n[nH]c1Nc1cnccn1` [Compound 227, 5-[(pyrazin-2-yl)amino]-3-{3-[(pyridin-2-yl)methoxy]-4-(2,2,2-trifluoroethanesulfonamido)phenyl}-1H-pyrazole-4-carboxamide], the dissociation constant Kd is under 0.01 µM on MLKL (full length), over 30 µM on RIP1 and over 30 µM at RIP3.
For `CCS(=O)(=O)Nc1ccc(-c2n[nH]c(Nc3cnccn3)c2C(N)=O)cc1OC(C)(C)c1ccc(F)cc1` [Compound 228, 3-(4-ethanesulfonamido-3-{[2-(4-fluorophenyl)propan-2-yl]oxy}phenyl)-5-[(pyrazin-2-yl)amino]-1H-pyrazole-4-carboxamide], the Kd at MLKL (full length) was under 0.01 µM; on RIP1, over 30 µM; at RIP3, over 30 µM.
Regarding `C[C@H](Oc1cc(-c2n[nH]c(Nc3cccc(C(F)(F)F)n3)c2C(N)=O)ccc1NS(=O)(=O)C(F)F)c1ccc(F)cc1` [Compound 229, 3-[4-(difluoromethanesulfonamido)-3-[(1S)-1-(4-fluorophenyl)ethoxy]phenyl]-5-{[6-(trifluoromethyl)pyridin-2-yl]amino}-1H-pyrazole-4-carboxamide], the Kd on MLKL (full length) is under 0.01 µM; on RIP1, over 30 µM; at RIP3 it was over 30 µM.
Regarding `CCS(=O)(=O)Nc1ccc(-c2n[nH]c(Nc3cnccn3)c2C(N)=O)cc1O[C@@H](C)c1ccccn1` [Compound 230, 3-{4-ethanesulfonamido-3-[(1S)-1-(pyridin-2-yl)ethoxy]phenyl}-5-[(pyrazin-2-yl)amino]-1H-pyrazole-4-carboxamide], the Kd was under 0.01 µM on MLKL (full length), over 30 µM on RIP1 and over 30 µM on RIP3.
Regarding `NC(=O)c1c(-c2ccc(NS(=O)(=O)CC(F)(F)F)c(OCc3ccc(F)cn3)c2)n[nH]c1Nc1cnccn1` [Compound 231, 3-(3-((5-fluoropyridin-2-yl)methoxy)-4-((2,2,2-trifluoroethyl)sulfonamido)phenyl)-5-(pyrazin-2-ylamino)-1H-pyrazole-4-carboxamide], the Kd at MLKL (full length) is under 0.01 µM; at RIP1, over 30 µM; at RIP3 it was over 30 µM.
Regarding `CCS(=O)(=O)Nc1ccc(-c2n[nH]c(Nc3cnccn3)c2C(N)=O)cc1OC1CCCc2ccccc21` (stereo not drawn) [Compound 232, 3-[4-ethanesulfonamido-3-(1,2,3,4-tetrahydronaphthalen-1-yloxy)phenyl]-5-[(pyrazin-2-yl)amino]-1H-pyrazole-4-carboxamide], the figures for the Kd on MLKL (full length), on RIP1 and at RIP3 were under 0.01 µM, over 30 µM and over 30 µM, respectively.
With `NC(=O)c1c(-c2ccc(NS(=O)(=O)CC(F)(F)F)c(OCc3ccc(Cl)cc3)c2)n[nH]c1Nc1cnc(C(F)(F)F)cn1` [Compound 234, 3-{3-[(4-chlorophenyl)methoxy]-4-(2,2,2-trifluoroethanesulfonamido)phenyl}-5-{[5-(trifluoromethyl)pyrazin-2-yl]amino}-1H-pyrazole-4-carboxamide], the Kd on MLKL (full length) was under 0.01 µM; on RIP1 it was over 30 µM; at RIP3, over 30 µM.
Take `NC(=O)c1c(-c2ccc(NS(=O)(=O)C(F)F)c(OCc3ccc(Cl)cc3)c2)n[nH]c1Nc1cnc(C(F)(F)F)cn1` [Compound 235, 3-(3-((4-chlorobenzyl)oxy)-4-((difluoromethyl)sulfonamido)phenyl)-5-((5-(trifluoromethyl)pyrazin-2-yl)amino)-1H-pyrazole-4-carboxamide]: the Kd was under 0.01 µM at MLKL (full length), over 30 µM at RIP1 and over 30 µM at RIP3.
Regarding `NC(=O)c1c(-c2ccc(NS(=O)(=O)C(F)F)c(OC(c3ccc(F)cc3)C3CCC3)c2)n[nH]c1Nc1cnccn1` (stereo not drawn) [Compound 236, 3-{3-[cyclobutyl(4-fluorophenyl)methoxy]-4-(difluoromethanesulfonamido)phenyl}-5-[(pyrazin-2-yl)amino]-1H-pyrazole-4-carboxamide], the Kd on MLKL (full length) is under 0.01 µM; on RIP1, over 30 µM; on RIP3 it was over 30 µM.
For `N#Cc1cccc(Nc2[nH]nc(-c3ccc(NS(=O)(=O)CC(F)(F)F)cc3)c2C(N)=O)n1` [Compound 237, 5-[(6-cyanopyridin-2-yl)amino]-3-[4-(2,2,2-trifluoroethanesulfonamido)phenyl]-1H-pyrazole-4-carboxamide], the figures for the Kd at MLKL (full length), on RIP1 and on RIP3 were under 0.01 µM, over 30 µM and over 30 µM, respectively.
As for `NC(=O)c1c(-c2ccc(NS(=O)(=O)CC(F)(F)F)c(OCc3ccc(F)cc3)c2)n[nH]c1Nc1ccccn1` [Compound 239, 3-{3-[(4-fluorophenyl)methoxy]-4-(2,2,2-trifluoroethanesulfonamido)phenyl}-5-[(pyridin-2-yl)amino]-1H-pyrazole-4-carboxamide], the Kd at MLKL (full length) is under 0.01 µM; on RIP1 it was over 30 µM; at RIP3 it was over 30 µM.
Consider `NC(=O)c1c(-c2ccc(NS(=O)(=O)CC(F)(F)F)c(OCc3ccc(F)cn3)c2)n[nH]c1Nc1ccccn1` [Compound 240, 3-{3-[(5-fluoropyridin-2-yl)methoxy]-4-(2,2,2-trifluoroethanesulfonamido)phenyl}-5-[(pyridin-2-yl)amino]-1H-pyrazole-4-carboxamide], for which the Kd on MLKL (full length) is under 0.01 µM; on RIP1, over 30 µM; on RIP3, over 30 µM.
As for `CCS(=O)(=O)Nc1ccc(-c2n[nH]c(Nc3ccccn3)c2C(N)=O)cc1OCc1ccc(F)cn1` [Compound 241, 3-{4-ethanesulfonamido-3-[(5-fluoropyridin-2-yl)methoxy]phenyl}-5-[(pyridin-2-yl)amino]-1H-pyrazole-4-carboxamide], the Kd on MLKL (full length) is under 0.01 µM; at RIP1, over 30 µM; at RIP3, over 30 µM.
